In patent US20070128217A1 (priority 2003, published 2007):

Legend:
[1] = system: antibodies in sera from SARS patients (sera 1a, 1b, 2, 6, 37, 62, London, SARS-yellow, SARS-green); assay type: binding, human; design: Binding of serum 6 to linear peptides of protein X1 of SARS-CoV Urbani / Binding of serum 37 to linear peptides of protein X1 of SARS-CoV Urbani / Binding of serum 6 to looped/cyclic peptide (PEPSCAN-ELISA) / Binding of serum 37 to looped/cyclic peptide (PEPSCAN-ELISA) / Binding of serum 37 to looped/cyclic peptides of protein X1 of SARS-CoV Urbani / Binding of serum 6 to linear peptides of protein X2 / Binding of serum 37 to linear peptides of protein X2 / Binding of serum 37 to looped/cyclic peptides of protein X2 of SARS-CoV Urbani / Binding of serum 6 to linear peptides of protein M of SARS-CoV Urbani / Binding of serum 37 to linear peptides of protein M of SARS-CoV Urbani / Binding of serum 6 to looped/cyclic peptides of protein M of SARS-CoV Urbani / Binding of serum 37 to looped/cyclic peptides of protein M of SARS-CoV Urbani / Binding of serum 6 to linear peptides of protein X3 of SARS-CoV Urbani / Binding of serum 37 to linear peptides of protein X3 of SARS-CoV Urbani / Binding of serum 37 to looped/cyclic peptides of protein X3 of SARS-CoV Urbani / Binding of serum 6 to linear peptides of protein X4 of SARS-CoV Urbani / Binding of serum 37 to linear peptides of protein X4 of SARS-CoV Urbani / Binding of serum 37 to looped/cyclic peptides of protein X4 of SARS-CoV Urbani / Binding of serum 6 to linear peptides of protein X5 of SARS-CoV Urbani / Binding of serum 37 to linear peptides of protein X5 of SARS-CoV Urbani / Binding of serum 37 to looped/cyclic peptides of protein X5 of SARS-CoV Urbani / Binding of serum 6 to linear peptides of protein N of SARS-CoV Urbani / Binding of serum 37 to linear peptides of protein N of SARS-CoV Urbani / Binding of serum 6 to linear peptide (PEPSCAN-ELISA) / Binding of serum 1a to looped/cyclic peptides of protein N of SARS-CoV Urbani / Binding of serum 1b to looped/cyclic peptides of protein N of SARS-CoV Urbani / Binding of serum 2 to looped/cyclic peptides of protein N of SARS-CoV Urbani / Binding of serum 6 to looped/cyclic peptides of protein N of SARS-CoV Urbani / Binding of serum 37 to looped/cyclic peptides of protein N of SARS-CoV Urbani / Binding of serum 62 to looped/cyclic peptides of protein N of SARS-CoV Urbani / Binding of serum London to looped/cyclic peptides of protein N of SARS-CoV Urbani / Binding of serum SARS-green to looped/cyclic peptides of protein N of SARS-CoV Urbani: unit not given here
[2] = system: control sera (pooled serum of ten healthy LUMC hospital workers; commercial negative donor pooled serum from the Dutch bloodbank); assay type: binding, human; design: Binding of Control serum LUMC to linear peptides / Binding of Control serum Blood-bank to linear peptides / Binding of Control serum LUMC to looped peptides / Binding of Control Serum Blood-Bank to Looped peptides / Binding of Control serum LUMC to linear peptides of the protein M of SARS-CoV Urbani / Binding of Control serum Blood-bank to linear peptides of the protein M of SARS-CoV Urbani / Binding of Control serum LUMC to looped peptides of the protein M of SARS-CoV Urbani / Binding of Control Serum Blood-Bank to Looped peptides of the protein M of SARS-CoV Urbani: unit not given here
[3] = system: rabbit serum obtained by immunizing a rabbit with the SARS-CoV strain Frankfurt 1; assay type: binding; design: Binding of a rabbit serum to linear peptides / Binding of a rabbit serum to looped peptides / Rabbit serum linear peptides / Rabbit serum looped peptides / Binding of a rabbit serum to linear peptides of protein N of SARS-CoV Urbani (Rabbit serum linear peptides) / Binding of a rabbit serum to looped/cyclic peptides of protein N of SARS-CoV Urbani (Rabbit serum looped peptides): unit not given here

Sequence: EPCPSGTYEGNSPFH
- Binding of serum 1a to linear peptides of protein X4 of SARS-CoV Urbani [1]: 0.7
- Binding of serum 1a to looped/cyclic peptides of protein X4 of SARS-CoV Urbani [1]: 0.8
- Binding of serum 1b to linear peptides of protein X4 of SARS-CoV Urbani [1]: 0.5
- Binding of serum 1b to looped/cyclic peptides of protein X4 of SARS-CoV Urbani [1]: 0.6
- Binding of serum 2 to linear peptides of protein X4 of SARS-CoV Urbani [1]: 0.4
- Binding of serum 2 to looped/cyclic peptides of protein X4 of SARS-CoV Urbani [1]: 0.7
- Binding of serum 6 to linear peptides of protein X4 of SARS-CoV Urbani [1]: 0.5
- Binding of serum 6 to looped/cyclic peptides of protein X4 of SARS-CoV Urbani [1]: 0.6
- Binding of serum 37 to linear peptides of protein X4 of SARS-CoV Urbani [1]: 0.6
- Binding of serum 37 to looped/cyclic peptides of protein X4 of SARS-CoV Urbani [1]: 0.7
- Binding of serum 62 to linear peptides of protein X4 of SARS-CoV Urbani [1]: 0.7
- Binding of serum 62 to looped/cyclic peptides of protein X4 of SARS-CoV Urbani [1]: 0.6
- Binding of serum London to linear peptides of protein X4 of SARS-CoV Urbani [1]: 0.7
- Binding of serum London to looped/cyclic peptides of protein X4 of SARS-CoV Urbani [1]: 0.4
- Binding of serum SARS-green to linear peptides of protein X4 of SARS-CoV Urbani [1]: 0.6
- Binding of serum SARS-green to looped/cyclic peptides of protein X4 of SARS-CoV Urbani [1]: 0.5
- Binding of serum SARS-yellow to linear peptides of protein X4 of SARS-CoV Urbani [1]: 0.9
- Binding of serum SARS-yellow to looped/cyclic peptides of protein X4 of SARS-CoV Urbani [1]: 0.5
- Binding of Control Serum Blood-Bank to Looped peptides [2]: 0.6
- Binding of Control serum Blood-bank to linear peptides [2]: 0.6
- Binding of Control serum LUMC to linear peptides [2]: 0.5
- Binding of Control serum LUMC to looped peptides [2]: 0.8
- Rabbit serum linear peptides [3]: 0.6
- Rabbit serum looped peptides [3]: 0.4

Sequence: LVIGVAFLAVFQSAT
- Binding of serum 1a to linear peptides of protein X1 of SARS-CoV Urbani [1]: 0.7
- Binding of serum 1a to looped/cyclic peptide (PEPSCAN-ELISA) [1]: 0.8
- Binding of serum 1b to linear peptides of protein X1 of SARS-CoV Urbani [1]: 0.6
- Binding of serum 1b to looped/cyclic peptide (PEPSCAN-ELISA) [1]: 0.6
- Binding of serum 2 to linear peptides of protein X1 of SARS-CoV Urbani [1]: 0.6
- Binding of serum 2 to looped/cyclic peptide (PEPSCAN-ELISA) [1]: 0.7
- Binding of serum 6 to linear peptides of protein X1 of SARS-CoV Urbani [1]: 0.4
- Binding of serum 6 to looped/cyclic peptide (PEPSCAN-ELISA) [1]: 0.7
- Binding of serum 37 to linear peptides of protein X1 of SARS-CoV Urbani [1]: 0.6
- Binding of serum 37 to looped/cyclic peptide (PEPSCAN-ELISA) [1]: 0.8
- Binding of serum 62 to linear peptides of protein X1 of SARS-CoV Urbani [1]: 0.6
- Binding of serum 62 to looped/cyclic peptide (PEPSCAN-ELISA) [1]: 1.0
- Binding of serum London to linear peptides of protein X1 of SARS-CoV Urbani [1]: 0.3
- Binding of serum London to looped/cyclic peptide (PEPSCAN-ELISA) [1]: 0.3
- Binding of serum SARS-green to linear peptides of protein X1 of SARS-CoV Urbani [1]: 0.3
- Binding of serum SARS-green to looped/cyclic peptide (PEPSCAN-ELISA) [1]: 0.5
- Binding of serum SARS-yellow to linear peptides of protein X1 of SARS-CoV Urbani [1]: 0.4
- Binding of serum SARS-yellow to looped/cyclic peptide (PEPSCAN-ELISA) [1]: 0.7
- Binding of Control Serum Blood-Bank to Looped peptides [2]: 1.1
- Binding of Control serum Blood-bank to linear peptides [2]: 0.6
- Binding of Control serum LUMC to linear peptides [2]: 0.6
- Binding of Control serum LUMC to looped peptides [2]: 1.0
- Binding of a rabbit serum to linear peptides [3]: 0.3
- Binding of a rabbit serum to looped peptides [3]: 1.2

Sequence: RPLMESELVIGAVII
- Binding of serum 1a to linear peptides of protein M of SARS-CoV Urbani [1]: 0.8
- Binding of serum 1b to linear peptides of protein M of SARS-CoV Urbani [1]: 0.6
- Binding of serum 2 to linear peptides of protein M of SARS-CoV Urbani [1]: 0.7
- Binding of serum 6 to linear peptides of protein M of SARS-CoV Urbani [1]: 0.3
- Binding of serum 37 to linear peptides of protein M of SARS-CoV Urbani [1]: 0.6
- Binding of serum 62 to linear peptides of protein M of SARS-CoV Urbani [1]: 0.9
- Binding of serum London to linear peptides of protein M of SARS-CoV Urbani [1]: 0.4
- Binding of serum SARS-green to linear peptides of protein M of SARS-CoV Urbani [1]: 0.3
- Binding of serum SARS-yellow to linear peptides of protein M of SARS-CoV Urbani [1]: 0.1
- Recognition of the peptide by sera of SARS-CoV infected individuals, and form (linear, looped/cyclic) in which it is recognized [1]: recognized in looped/cyclic form
- Binding of Control Serum Blood-Bank to Looped peptides of the protein M of SARS-CoV Urbani [2]: 0.8
- Binding of Control serum Blood-bank to linear peptides of the protein M of SARS-CoV Urbani [2]: 0.6
- Binding of Control serum LUMC to linear peptides of the protein M of SARS-CoV Urbani [2]: 0.5
- Binding of Control serum LUMC to looped peptides of the protein M of SARS-CoV Urbani [2]: 0.8
- Rabbit serum linear peptides [3]: 0.4
- Rabbit serum looped peptides [3]: 0.2
